The values below come from the RepoRT retention time repository.

The series can be described thus: RP, Waters ACQUITY UPLC BEH C18, 50 × 2.1 mm, 1.7 µm, 55 °C, 0.4 mL/min, estimated dead time 0.28 min; A: 40% water + 60% acetonitrile + 0.1% acetic acid + 10 mM ammonium acetate; B: 10% acetonitrile + 90% isopropanol + 0.1% acetic acid + 10 mM ammonium acetate; gradient (min/%B) 0/40 2/43 2.1/50 12/54 12.1/70 18/99 19/99. The conditions noted are these: stereoisomer not certain.

As for `CC12CCC3C(CCC4CC(OS(=O)(=O)O)CCC43C)C1CCC2=O` (stereo not drawn), the LC retention time was 1 min.

Regarding `CCCCCCCCCCCCC(O)C(=O)O` (stereo not drawn) [2-hydroxymyristic acid], the LC retention time is 0.92 min.

In the case of `CCCCCCCCCCCCCCCC(=O)OCC(O)COP(=O)([O-])OCC[N+](C)(C)C` (stereo not drawn) [LPC(16:0/0:0)], the LC retention time was 1.35 min.

Take `CCCCCC=CCC=CCCCCCCCC(=O)OC(COC(=O)CCCCCCCCCCCCCCC)COP(=O)([O-])OCC[N+](C)(C)C` (stereo not drawn) [PC(16:0/18:2)]: the LC retention time is 7 min.

As for `CCCCCC=CCC=CCC=CCC=CCCCC(=O)OC(COCCCCCCCCCCCCCCCC)COP(=O)([O-])OCC[N+](C)(C)C` (stereo not drawn) [PC(O-16:0/20:4)], the LC retention time was 8 min.

In the case of `CCCCCCCCC=CCCCCCCCC(=O)OC(COC(=O)CCCCCCCCCCCCCCC)COP(=O)(O)OC1C(O)C(O)C(O)C(O)C1O` (stereo not drawn) [PI(16:0/18:1)], the LC retention time was 6 min.

As to `CCCCCC=CCC=CCC=CCC=CCCCC(=O)O` [arachidonic acid], the LC retention time is 2 min.

On to `CC(CCC(=O)O)C1CCC2C3C(O)CC4CC(O)CCC4(C)C3CC(O)C12C` (stereo not drawn) [cholic acid], for which the LC retention time was 1 min.

Consider `CCCCCC/C=C\CCCC(=O)O` [cis-5-dodecenoic acid], for which the LC retention time was 1 min.

Consider `CCCCCCCC/C=C\CCCCCCCCCCCC(=O)O` [cis-13-docosenoic acid], for which the LC retention time was 4 min.

Regarding `CCCCCCCCCCCC(=O)O` [lauric acid], the LC retention time was 1 min.

As to `CCCCC/C=C\C/C=C\CCCCCCCC(=O)O` [linoleic acid], the LC retention time was 2 min.

In the case of `C=CCCCCCCCCC(=O)O` [undecylenic acid], the LC retention time is 1 min.
